# Experimental data as given in patent publication US20230150951A1, “2,5- OR 2,6-DISUBSTITUTED HYDROQUINONE DERIVATIVES WITH AT LEAST ONE CARBOXY, SULFO OR AMIDO GROUP USEFUL AS MEDICAMENTS” (OM PHARMA SA, priority 2020, published 2023).
# Assays:
# Type in all cases: cell-based
# FGF-2 = biological target: T1, FGF-2 (Homo sapiens, UniProt P09038); experiment: FGF-2 induced sprouting of HUVEC, spheroid-based cellular angiogenesis assay; settings: FGF-2 25 ng/mL preincubated with compound, 24 h
# T1 construct: purchased Peprotech 100-18C
# T1 sequence (P09038 134-288): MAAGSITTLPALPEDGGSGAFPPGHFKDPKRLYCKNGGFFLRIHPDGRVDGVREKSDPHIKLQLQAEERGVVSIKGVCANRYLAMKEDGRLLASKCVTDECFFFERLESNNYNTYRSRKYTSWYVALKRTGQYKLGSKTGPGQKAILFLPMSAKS
# Summary of the method: (§1)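 Spheroids of 400 HUVEC (passage 3–4), embedded in collagen gel, were stimulated with FGF-1, FGF-2 or VEGF-A (final 25 ng/mL) preincubated 30 min at 37°C with compound (final 1.56–100 μM).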
# Human neutrophils [1] = experiment: Neutrophil adhesion under static conditions; settings: fMLP-stimulated adhesion to fibrinogen; method: 40 μM and 80 μM, concentration of the value not stated
# Summary of the method: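 Donor buffy-coat neutrophils (3×10^6/ml, PBS with Ca/Mg, 10% FCS, pH 7.2) preincubated 30 min at 37° C with 40 μM or 80 μM compound, then stimulated 1 min at 37° C with 1 nM fMLP on fibrinogen-coated glass. Adherent cells fixed and counted by computer; mean ± SD, unpaired t-test.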
# FGF-1 = biological target: T2, FGF-1 (Homo sapiens, UniProt P05230); experiment: FGF-1 induced sprouting of HUVEC, spheroid-based cellular angiogenesis assay; settings: FGF-1 25 ng/mL preincubated with compound, 24 h
# T2 construct: purchased Peprotech 100-17A
# T2 sequence (P05230 whole entry): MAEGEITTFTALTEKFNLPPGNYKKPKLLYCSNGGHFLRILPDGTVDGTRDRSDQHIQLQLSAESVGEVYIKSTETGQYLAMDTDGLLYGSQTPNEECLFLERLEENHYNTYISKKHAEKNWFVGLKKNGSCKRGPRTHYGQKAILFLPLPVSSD
# Summary of the method: as §1
# Human neutrophils [2] = experiment: Inhibition of ROS production in human neutrophils (isoluminol chemiluminescence); settings: Homo sapiens, Neutrophil, fMLP+TNF-α stimulated PMN
# Summary of the method: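 Neutrophils from healthy-donor buffy coats (3×10^6/ml in HBSS with Ca/Mg) pre-incubated 30 min at 37° C with compound (0.1–10 μM), primed with TNF-α 20 ng/ml for 10 min, then added to fibrinogen-coated wells. Isoluminol/HRP chemiluminescence recorded every 25 sec for 250 sec after fMLP (1 μM), background-subtracted.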
# VEGFR-2 = biological target: T3, VEGFR-2 (Homo sapiens, UniProt P35968); experiment: VEGF-165 induced phosphorylation of VEGF-Receptor on HUVEC; settings: HUVEC preincubated 60 min, VEGF165 25 ng/mL 2 min; read-out: VEGFR-Phosphorylation inhibition IC50
# T3 construct: endogenous in cells; host or cells: primary HUVEC
# T3 sequence (P35968 20-1356): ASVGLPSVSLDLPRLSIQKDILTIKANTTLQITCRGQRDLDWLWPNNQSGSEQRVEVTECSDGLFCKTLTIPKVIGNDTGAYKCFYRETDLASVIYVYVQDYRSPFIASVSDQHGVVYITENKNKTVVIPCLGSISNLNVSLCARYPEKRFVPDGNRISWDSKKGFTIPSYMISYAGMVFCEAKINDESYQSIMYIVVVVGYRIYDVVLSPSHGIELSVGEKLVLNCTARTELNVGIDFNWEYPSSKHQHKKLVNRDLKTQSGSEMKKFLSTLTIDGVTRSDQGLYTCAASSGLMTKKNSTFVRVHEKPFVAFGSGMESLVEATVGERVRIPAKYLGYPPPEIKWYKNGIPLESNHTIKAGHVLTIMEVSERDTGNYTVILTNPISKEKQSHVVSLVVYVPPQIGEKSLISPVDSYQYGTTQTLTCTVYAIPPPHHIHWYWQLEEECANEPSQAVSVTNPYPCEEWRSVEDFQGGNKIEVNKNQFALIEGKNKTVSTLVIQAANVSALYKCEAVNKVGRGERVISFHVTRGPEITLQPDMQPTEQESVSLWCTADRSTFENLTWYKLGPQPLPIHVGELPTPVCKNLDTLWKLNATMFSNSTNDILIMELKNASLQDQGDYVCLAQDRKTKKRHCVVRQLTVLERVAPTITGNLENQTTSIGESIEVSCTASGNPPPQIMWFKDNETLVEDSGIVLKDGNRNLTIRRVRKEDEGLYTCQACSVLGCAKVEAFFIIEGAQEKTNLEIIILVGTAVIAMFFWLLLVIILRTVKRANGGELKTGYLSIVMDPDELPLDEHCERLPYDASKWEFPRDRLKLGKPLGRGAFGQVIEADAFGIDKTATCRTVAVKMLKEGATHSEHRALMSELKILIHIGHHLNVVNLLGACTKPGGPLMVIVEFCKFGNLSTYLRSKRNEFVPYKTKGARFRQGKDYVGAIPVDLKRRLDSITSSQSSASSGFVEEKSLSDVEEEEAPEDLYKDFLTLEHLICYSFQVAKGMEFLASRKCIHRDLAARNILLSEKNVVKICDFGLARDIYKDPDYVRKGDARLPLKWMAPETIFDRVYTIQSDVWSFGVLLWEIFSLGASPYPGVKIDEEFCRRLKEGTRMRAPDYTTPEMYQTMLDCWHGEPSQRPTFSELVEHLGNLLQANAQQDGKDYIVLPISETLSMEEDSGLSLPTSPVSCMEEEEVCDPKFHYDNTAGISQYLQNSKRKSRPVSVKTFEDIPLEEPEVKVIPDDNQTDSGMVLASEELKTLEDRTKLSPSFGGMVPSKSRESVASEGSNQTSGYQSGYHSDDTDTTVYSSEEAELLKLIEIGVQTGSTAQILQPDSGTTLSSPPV
# VEGF-A = biological target: T4, VEGF-A (Homo sapiens, UniProt P15692); experiment: VEGF-A induced sprouting of HUVEC, spheroid-based cellular angiogenesis assay; settings: VEGF-A 25 ng/mL preincubated with compound, 24 h, read-out: VEGF-A1 IC50
# T4 construct: purchased ProQinase GmbH
# T4 sequence (P15692 27-191 isoform P15692-4): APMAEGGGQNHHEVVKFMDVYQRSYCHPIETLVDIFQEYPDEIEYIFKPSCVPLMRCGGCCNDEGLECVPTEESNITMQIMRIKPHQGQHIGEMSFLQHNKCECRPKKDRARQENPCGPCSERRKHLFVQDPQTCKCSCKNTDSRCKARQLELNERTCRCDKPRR
# Experimental: Aim of this in vitro method is to assess compounds effects on FGF-2, FGF-1, or VEGF-A induced sprouting of human umbilical vein endothelial cells (HUVEC) in the spheroid-based cellular angiogenesis assay. Before adding the growth factors to the cells, they were preincubated with the compound. Sunitinib was tested as a control (without preincubation).
# IC50 values determined for the tested compounds are expressed in microM [μM] and the values for the inhibition of FGF-1, FGF2 and VEGF-A induced growth (sprouting) are listed after each compound in the examples after chemical characterization.
# Sprouting test was performed on the compounds dissolved in DMSO to reach 100-fold concentrated stock solutions and dissolved in culture media. Sunitinib as reference compound was provided by ProQinase GmbH. Growth factors were purchased from rhFGF-basic (FGF-2), Peprotech, New Jersey, USA, #100-18C, Lot #0415571; rhFGF-acidic (FGF-1), Peprotech, New Jersey, USA, #100-17A, Lot #031207; hVEGF-A165 (ProQinase GmbH, Freiburg, Germany; 05.02.2010) were used for stimulation of HUVEC cells growth.
# Test system: Endothelial cells from human umbilical vein (HUVEC) from pooled donors were stored frozen with 70% medium, 20% FCS, 10% DMSO at about 1×10^6 cells/ampoule. HUVEC cells, primary human umbilical vein endothelial cells (PromoCell, Heidelberg, Germany), were used after passage 3 to 4. Morphology of the cells are adherent, cobblestone-like growing as monolayer and were cultured in endothelial cell growth and basal medium (ECGM/ECBM, PromoCell). The subculture was split 1:3; every 3-5 days, seed out at ca. 1×10^4 cells/cm^2 and incubated at 37° C. with 5% CO2 with a doubling time 24-48 hours
# Dilution of test compounds: 100× concentrated solutions (concerning to the final assay concentrations) of each test compound were prepared with the appropriate solvent (in DMSO or in water). These 100×compound solutions were further diluted in endothelial cell growth and basal medium (ECBM) 1:7.5 to get a 13.33× concentrated solution. 75 μl of the 13.33×solution was subsequently mixed with 25 μl of 40× concentrated stimulus (solved in ECBM), resulting in a 10×concentrated stimulus/compound mixture. This mixture (100 μl) was incubated for 30 min at 37° C. and then added to 900 μl gel, containing the HUVEC spheroids (resulting in the final assay concentration).
# Test method: the experiments were pursued in modification of the originally published protocol (Korff and Augustin: J Cell Sci 112: 3249-58, 1999). In brief, spheroids were prepared as described (Korff and Augustin: J Cell Biol 143: 1341-52, 1998) by pipetting 400 HUVEC in a hanging drop on plastic dishes to allow overnight spheroid aggregation. 50 HUVEC spheroids were then seeded in 0.9 ml of a collagen gel and pipetted into individual wells of a 24 well plate to allow polymerization. The test compounds were preincubated with the growth factors (FGF-1, FGF-2 or VEGF-A final concentration 25 ng/mL) in a 10-fold concentrated solution and subsequently, 100 μl of this solution was added on top of the polymerized gel. All compounds were diluted in solvent (DMSO or water) as 100×stocks first (which means 100×stocks of each final assay concentration were prepared in solvent). Subsequently, these stocks were further diluted in medium (resulting in the 13.33×stocks of each final assay concentration) with final concentrations tested: 100, 50, 25, 12.5, 6.25, 3.13 and 1.56×10^−6 M). Plates were incubated at 37° C. for 24 hours and fixed by adding 4% PFA (Roth, Karlsruhe, Germany).
# Quantification of growth factor inhibition: sprouting intensity of HUVEC spheroids treated with the growth factor and the inhibitors were quantitated by an image analysis system determining the cumulative sprout length per spheroid (CSL).
SMILES,IC50 (FGF-2) [µM],IC50 (FGF-1) [µM],IC50 (Human neutrophils [2]) [µM],IC50 (VEGFR-2) [µM],IC50 (VEGF-A) [µM],Neutrophil adhesion inhibition (Human neutrophils [1]) [%],inhibition at 0.3 µM (Human neutrophils [2]) [%]
COC(=O)c1cc(O)cc(CS(=O)(=O)Cc2cc(O)cc(C(=O)OC)c2O)c1O [IVc-059a-E2],94,78,2.64,2.7,≥ 200,50.5,45.7
"O=C(O)c1cc(O)c(C(=O)Nc2cccc(C(=O)O)c2C(=O)O)cc1O [Ia-011a, 3-(4-carboxy-2,5-dihydroxybenzamido)phthalic acid]",110,35,,≥ 100,≥ 200,42.32,57.7
"O=C(O)Cc1cc(O)c(C(=O)Nc2cc(C(=O)O)cc(C(=O)O)c2)cc1O [IIIa-015a, 5-(4-(carboxymethyl)-2,5-dihydroxybenzamido)isophthalic acid]",114,16,,0.89,202,12.13,78.8

# Compounds with a lower IC50 (FGF-2), results first:
IC50 (FGF-2) [µM],IC50 (FGF-1) [µM],IC50 (Human neutrophils [2]) [µM],IC50 (VEGFR-2) [µM],IC50 (VEGF-A) [µM],SMILES,Neutrophil adhesion inhibition (Human neutrophils [1]) [%],inhibition at 0.3 µM (Human neutrophils [2]) [%]
12,137,2.54,≥ 100,34,"O=C(O)c1cc(O)cc(C(=O)Nc2c(C(=O)O)cccc2C(=O)O)c1O [IIa-013a, 2-(3-carboxy-2,5-dihydroxybenzamido)isophthalic acid]",15.75,57.7
61,16,1,0.52,45,"O=C(O)c1cc(O)cc(C(=O)NCc2ccc(O)c(O)c2)c1O [IIa-035a, 3-(3,4-Dihydroxyphenylmethylaminocarbonyl)-2,5-dihydroxybenzoic acid]",36.67,77
65,10,1.1,10,109,"O=C(O)c1cc(O)c(C(=O)NCCc2ccc(O)c(O)c2)cc1O [Ia-035a-2, 4-(2-(3,4-Dihydroxyphenyl)ethylaminocarbonyl)-2,5-dihydroxybenzoic acid]",21.5,58.8
